Activity calls are given as the source filed them. No rule for the calls is given here.
Tested on: GENE-TOX genotoxicity assays, various organisms and cells
Assay: GENE-TOX mutagenicity studies
Settings: for call: Assay Type: In vivo carcinogenicity studies
[1] = Species/Cell Type: Nonhuman, Assay Code: CCG+L, Evaluation Type: Evaluation A (Pre-1980)
[2] = Species/Cell Type: Saccharomyces cerevisiae, Assay Type: Mitotic recombination or gene conversion, Assay Code: YEC+, Evaluation Type: Evaluation A (Pre-1980)
[3] = Species/Cell Type: Saccharomyces cerevisiae, Assay Type: Mitotic recombination or gene conversion, Assay Code: YEH+, Evaluation Type: Evaluation A (Pre-1980)
[4] = Species/Cell Type: Saccharomyces cerevisiae, Assay Type: Reverse gene mutation, Assay Code: YER+, Evaluation Type: Evaluation A (Pre-1980)
[5] = Species/Cell Type: Saccharomyces cerevisiae, Assay Type: Reverse gene mutation, Assay Code: YERT, Evaluation Type: Evaluation A (Pre-1980)
[6] = Species/Cell Type: Nonhuman, Assay Code: CCG-, Evaluation Type: Evaluation A (Pre-1980)
[7] = Species/Cell Type: Salmonella typhimurium (one or more of the five standard strains: TA98, TA100, TA1535, TA1537, and TA1538), Assay Type: Histidine reverse gene mutation, Ames assay, Assay Code: SAL+*, Activation: With metabolic activation, Evaluation Type: Evaluation A (Pre-1980)
[8] = Species/Cell Type: Bacillus subtilis (H17 vs M45), Assay Type: Rec-assay, spot test, DNA effects (bacterial DNA repair), Assay Code: REW-, Evaluation Type: Evaluation A (Pre-1980)

For N#Cc1c(Cl)c(Cl)c(Cl)c(C#N)c1Cl, the mutagenic call (Species/Cell Type: Hordeum vulgare (barley), Assay Type: Chromosome aberrations, Assay Code: HOC-, Evaluation Type: Evaluation A (Pre-1980)) was “inactive; negative” and the call [1] was “active; positive”.
For Cc1c(N)nc(C(CC(N)=O)NCC(N)C(N)=O)nc1C(=O)NC(C(=O)NC(C)C(O)C(C)C(=O)NC(C(=O)NCCc1nc(-c2nc(C(=O)NCCC[S+](C)C)cs2)cs1)C(C)O)C(O[C@@H]1O[C@@H](CO)[C@@H](O)[C@H](O)[C@@H]1O[C@H]1O[C@H](CO)[C@@H](O)[C@H](OC(N)=O)[C@@H]1O)c1cnc[nH]1 (stereo partly specified), the mutagenic call (Species/Cell Type: Human lymphocytes, Assay Type: Sister-chromatid exchange (SCE) in vitro, Assay Code: SCLT, Evaluation Type: Evaluation B (Post-1980)) was “no conclusion”, the mutagenic call (Species/Cell Type: Human, Assay Type: Sister-chromatid exchange (SCE) in vitro, Assay Code: SC1T, Evaluation Type: Evaluation B (Post-1980)) was “no conclusion” and the mutagenic call [2] was “active; positive”. For the same molecule, the mutagenic call [3] was “active; positive” and the mutagenic call [4] was “active; positive”.
For CC[C@H](C)[C@@H]1NC(=O)CNC(=O)[C@@H]2Cc3c([nH]c4cc(O)ccc34)S(=O)C[C@H](NC(=O)CNC1=O)C(=O)N[C@@H](CC(N)=O)C(=O)N1C[C@H](O)C[C@H]1C(=O)N[C@@H]([C@@H](C)[C@@H](O)CO)C(=O)N2 (stereo partly specified), the mutagenic call (Species/Cell Type: Drosophila melanogaster, Assay Type: Aneuploidy, whole sex chromosome loss, chromosome aberrations, Assay Code: DACT, Evaluation Type: Evaluation A (Pre-1980)) was “no conclusion”.
In the case of ClCCNCCCNc1c2ccccc2nc2ccccc12, the mutagenic call (Species/Cell Type: Chinese hamster ovary (CHO) cells, Assay Type: Forward gene mutation at the HPRT locus, Assay Code: CHO+, Evaluation Type: Evaluation B (Post-1980)) is reported as “active; positive”.
In the case of COc1cc(/C=N/NC(=O)COc2ccc(Br)cc2CN2CCCCC2)ccc1O, the mutagenic call [5] is reported as “no conclusion”.
CC(=O)C(N=Nc1ccc(-c2ccc(N=NC(C(C)=O)C(=O)Nc3ccccc3)c(Cl)c2)cc1Cl)C(=O)Nc1ccccc1 (stereo unspecified) was tested, and the call [6] was “inactive; negative”.
In the case of Cc1ccc2cccnc2c1, the mutagenic call [7] is reported as “active; positive”.
C=CCCl was tested, and the mutagenic call (Species/Cell Type: Escherichia coli polA (W3119 vs P3478), Assay Type: Rec-assay, DNA effects (bacterial DNA repair), Assay Code: RE1+, Evaluation Type: Evaluation A (Pre-1980)) was “active; positive”, the mutagenic call [2] was “active; positive” and the mutagenic call [3] was “active; positive”.
In the case of CC1CCCCN1N=O (stereo unspecified), the mutagenic call (Species/Cell Type: Drosophila melanogaster, Assay Type: Aneuploidy, partial sex chromosome loss, chromosome aberrations, Assay Code: DAPT, Evaluation Type: Evaluation A (Pre-1980)) is reported as “no conclusion”, the mutagenic call (Species/Cell Type: Drosophila melanogaster, Assay Type: Aneuploidy, whole sex chromosome loss, chromosome aberrations, Assay Code: DAC-M, Evaluation Type: Evaluation A (Pre-1980)) is reported as “inactive; negative” and the mutagenic call (Species/Cell Type: Drosophila melanogaster, Assay Type: Sex-linked recessive lethal gene mutation, Assay Code: SRLT, Evaluation Type: Evaluation A (Pre-1980)) is reported as “no conclusion”. For the same molecule, the mutagenic call (Species/Cell Type: Saccharomyces cerevisiae, Assay Type: Forward gene mutation, Assay Code: YEF+*, Activation: With metabolic activation, Evaluation Type: Evaluation A (Pre-1980)) was “active; positive”, the mutagenic call (Species/Cell Type: Saccharomyces cerevisiae, Assay Type: Reverse gene mutation, Assay Code: YER+*, Activation: With metabolic activation, Evaluation Type: Evaluation A (Pre-1980)) was “active; positive” and the mutagenic call [7] was “active; positive”.
In the case of O=S(=O)(O)c1ccc(N=Nc2c(O)ccc3ccccc23)cc1, the mutagenic call (Species/Cell Type: Bacillus subtilis (H17 vs M45), Assay Type: Rec-assay, spot test, DNA effects (bacterial DNA repair), Assay Code: REWT, Evaluation Type: Evaluation A (Pre-1980)) is reported as “no conclusion” and the mutagenic call (Species/Cell Type: Salmonella typhimurium (one or more of the five standard strains: TA98, TA100, TA1535, TA1537, and TA1538), Assay Type: Histidine reverse gene mutation, Ames assay, Assay Code: SALT, Evaluation Type: Evaluation A (Pre-1980)) is reported as “no conclusion”.
For O=S=O, the mutagenic call (Species/Cell Type: Human lymphocytes, Assay Type: Sister-chromatid exchange (SCE) in vivo, Assay Code: SCY+, Evaluation Type: Evaluation B (Post-1980)) was “active; positive”, the mutagenic call (Species/Cell Type: Tradescantia species, Assay Type: Chromosome aberrations, Assay Code: TRC+, Evaluation Type: Evaluation A (Pre-1980)) was “active; positive” and the mutagenic call (Species/Cell Type: Tradescantia species, Assay Type: Gene mutation, Assay Code: TRM+D, Dose Response: With dose response, Evaluation Type: Evaluation A (Pre-1980)) was “active; positive”.
In the case of Cc1ccc2cc3c4c(ccc3c3c2c1CC3)C(O)C(O)C=C4 (stereo unspecified), the mutagenic call (Species/Cell Type: Chinese hamster lung (V79) cells, Assay Type: Forward gene mutation at the HPRT or ouabain locus, Assay Code: V79+, Evaluation Type: Evaluation A (Pre-1980)) is reported as “active; positive”, the call [1] is reported as “active; positive” and the mutagenic call [7] is reported as “active; positive”.
For C=CC1=C(C)/C(=C/c2[nH]c(Cc3[nH]c(/C=C4\NC(=O)C(C)=C4C=C)c(C)c3CCC(=O)O)c(CCC(=O)O)c2C)NC1=O, the mutagenic call (Species/Cell Type: Human lymphocytes, Assay Type: Sister-chromatid exchange (SCE) in vitro, Assay Code: SCL-, Evaluation Type: Evaluation A (Pre-1980)) was “inactive; negative” and the mutagenic call (Species/Cell Type: Human, Assay Type: Sister-chromatid exchange (SCE) in vitro, Assay Code: SC1-, Evaluation Type: Evaluation A (Pre-1980)) was “inactive; negative”.
With COC(=O)c1ccc(C(=O)OC)cc1 the call [6] was “inactive; negative” and the mutagenic call (Species/Cell Type: Syrian hamster embryo (SA7/SHE) cells, Assay Type: Cell transformation, viral enhanced, Assay Code: CT7-, Evaluation Type: Evaluation A (Pre-1980)) was “inactive; negative”.
In the case of COc1ccc2c(c1)OC(C)(C)[C@@H](c1ccccc1)[C@@H]2c1ccc(OCCN2CCCC2)cc1, the mutagenic call (Species/Cell Type: Human, Sex: Male, Assay Type: Sperm morphology, Assay Code: SPHT, Evaluation Type: Evaluation A (Pre-1980)) is reported as “no conclusion”.
In the case of Clc1ccc(COC(Cn2ccnc2)c2ccc(Cl)cc2Cl)cc1 (stereo unspecified), the mutagenic call (Species/Cell Type: Aspergillus nidulans, Assay Type: Aneuploidy, chromosome aberrations, Assay Code: ASN+, Evaluation Type: Evaluation A (Pre-1980)) is reported as “active; positive”.
With O=c1[nH]c(Cl)c(Cl)cc1Cl the mutagenic call (Species/Cell Type: Nonhuman, Assay Type: Sister-chromatid exchange (SCE) in vitro, Assay Code: SC2T, Evaluation Type: Evaluation B (Post-1980)) was “no conclusion” and the mutagenic call (Species/Cell Type: Nonhuman, Assay Type: Sister-chromatid exchange (SCE) in vivo, Assay Code: SC3-, Evaluation Type: Evaluation B (Post-1980)) was “inactive; negative”.
For Cc1cc(O)ccc1C1(c2ccc(O)cc2C)OS(=O)(=O)c2ccccc21, the mutagenic call (Species/Cell Type: Allium cepa, Assay Type: Chromosome aberrations, Assay Code: ALC+D, Dose Response: With dose response, Evaluation Type: Evaluation A (Pre-1980)) was “active; positive”.
In the case of [Mg+2], the mutagenic call [8] is reported as “inactive; negative”.
CCOC(=O)COc1ccc(Br)cc1CCl (tested in a mixture with another compound) was tested, and the mutagenic call [5] was “no conclusion”.
With OCC1=C[C@H](N[C@H]2C[C@H](CO)[C@@H](O[C@@H]3O[C@H](CO)[C@@H](O)[C@H](O)[C@H]3O)[C@H](O)[C@H]2O)[C@H](O)[C@@H](O)[C@@H]1O the mutagenic call [8] was “inactive; negative”.
With NC(=O)c1ccc(/C=C/c2ccc([N+](=O)[O-])o2)cc1 the mutagenic call (Species/Cell Type: Drosophila melanogaster, Assay Type: Sex-linked recessive lethal gene mutation, Assay Code: SRL+, Evaluation Type: Evaluation A (Pre-1980)) was “active; positive”, the mutagenic call (Species/Cell Type: Neurospora crassa, Assay Type: Forward gene mutation, Assay Code: NEF+, Evaluation Type: Evaluation A (Pre-1980)) was “active; positive” and the mutagenic call (Species/Cell Type: Neurospora crassa, Assay Type: Reverse gene mutation, Assay Code: NER+, Evaluation Type: Evaluation A (Pre-1980)) was “active; positive”. For the same molecule, the mutagenic call [3] was “active; positive” and the mutagenic call [4] was “active; positive”.

Reference: PubChem BioAssay AID1259408 (Genetic Toxicology Data Bank (GENE-TOX), 2018)
